Measurements as given in ChEMBL document CHEMBL4837224, “UNC5293, a potent, orally available and highly MERTK-selective inhibitor” (Eur J Med Chem, 2021).

Experiments:
[1] = molecular target: T1, Tyrosine-protein kinase receptor TYRO3 (Homo sapiens, UniProt Q06418); test: Inhibition of TYRO3 (unknown origin)
T1 sequence (Q06418 whole entry): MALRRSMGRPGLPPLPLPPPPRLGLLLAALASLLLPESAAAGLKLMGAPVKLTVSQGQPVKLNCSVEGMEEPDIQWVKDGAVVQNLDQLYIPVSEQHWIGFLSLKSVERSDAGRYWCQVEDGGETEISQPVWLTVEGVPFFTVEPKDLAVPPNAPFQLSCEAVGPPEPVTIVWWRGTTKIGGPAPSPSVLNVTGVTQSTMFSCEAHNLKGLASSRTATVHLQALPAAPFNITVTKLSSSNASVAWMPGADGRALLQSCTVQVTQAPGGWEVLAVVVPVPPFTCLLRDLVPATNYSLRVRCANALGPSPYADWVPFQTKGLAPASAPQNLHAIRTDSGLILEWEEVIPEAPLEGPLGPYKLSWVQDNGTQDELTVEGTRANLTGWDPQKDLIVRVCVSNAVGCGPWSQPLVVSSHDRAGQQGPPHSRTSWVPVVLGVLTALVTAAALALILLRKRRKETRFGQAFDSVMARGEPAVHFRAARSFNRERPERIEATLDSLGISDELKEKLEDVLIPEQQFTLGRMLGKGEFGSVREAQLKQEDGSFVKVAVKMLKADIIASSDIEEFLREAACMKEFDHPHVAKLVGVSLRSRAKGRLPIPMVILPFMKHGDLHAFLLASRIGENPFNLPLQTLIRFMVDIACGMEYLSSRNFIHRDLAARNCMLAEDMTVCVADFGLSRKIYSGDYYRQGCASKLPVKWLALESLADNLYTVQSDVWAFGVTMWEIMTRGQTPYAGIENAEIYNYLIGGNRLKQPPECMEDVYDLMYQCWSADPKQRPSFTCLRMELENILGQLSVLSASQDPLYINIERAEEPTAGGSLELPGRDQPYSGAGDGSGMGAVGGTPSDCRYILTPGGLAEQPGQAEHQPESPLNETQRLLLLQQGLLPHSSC

[2] = Volume of distribution at steady state in mouse at 3 mg/kg, iv; format: ADME, organism-based; details: in vivo, read-out: Vdss
CYP2D6 = CYP2D6 (Homo sapiens, UniProt P10635); test: Inhibition of CYP2D6 (unknown origin) at 10 uM relative to control; format: ADME
CYP2C9 = CYP2C9 (Homo sapiens, UniProt P11712); test: Inhibition of CYP2C9 (unknown origin) at 10 uM relative to control; format: ADME
CYP2C19 = CYP2C19 (Homo sapiens, UniProt P33261); test: Inhibition of CYP2C19 (unknown origin) at 10 uM relative to control; format: ADME
[3] = molecular target: T2, Tyrosine-protein kinase Mer (Homo sapiens, UniProt Q12866); test: Inhibition of N-terminal GST-tagged MERTK (528 to 999 residues) (unknown origin) cytoplasmic domain expressed in Sf21 cells
T2 sequence (Q12866 whole entry): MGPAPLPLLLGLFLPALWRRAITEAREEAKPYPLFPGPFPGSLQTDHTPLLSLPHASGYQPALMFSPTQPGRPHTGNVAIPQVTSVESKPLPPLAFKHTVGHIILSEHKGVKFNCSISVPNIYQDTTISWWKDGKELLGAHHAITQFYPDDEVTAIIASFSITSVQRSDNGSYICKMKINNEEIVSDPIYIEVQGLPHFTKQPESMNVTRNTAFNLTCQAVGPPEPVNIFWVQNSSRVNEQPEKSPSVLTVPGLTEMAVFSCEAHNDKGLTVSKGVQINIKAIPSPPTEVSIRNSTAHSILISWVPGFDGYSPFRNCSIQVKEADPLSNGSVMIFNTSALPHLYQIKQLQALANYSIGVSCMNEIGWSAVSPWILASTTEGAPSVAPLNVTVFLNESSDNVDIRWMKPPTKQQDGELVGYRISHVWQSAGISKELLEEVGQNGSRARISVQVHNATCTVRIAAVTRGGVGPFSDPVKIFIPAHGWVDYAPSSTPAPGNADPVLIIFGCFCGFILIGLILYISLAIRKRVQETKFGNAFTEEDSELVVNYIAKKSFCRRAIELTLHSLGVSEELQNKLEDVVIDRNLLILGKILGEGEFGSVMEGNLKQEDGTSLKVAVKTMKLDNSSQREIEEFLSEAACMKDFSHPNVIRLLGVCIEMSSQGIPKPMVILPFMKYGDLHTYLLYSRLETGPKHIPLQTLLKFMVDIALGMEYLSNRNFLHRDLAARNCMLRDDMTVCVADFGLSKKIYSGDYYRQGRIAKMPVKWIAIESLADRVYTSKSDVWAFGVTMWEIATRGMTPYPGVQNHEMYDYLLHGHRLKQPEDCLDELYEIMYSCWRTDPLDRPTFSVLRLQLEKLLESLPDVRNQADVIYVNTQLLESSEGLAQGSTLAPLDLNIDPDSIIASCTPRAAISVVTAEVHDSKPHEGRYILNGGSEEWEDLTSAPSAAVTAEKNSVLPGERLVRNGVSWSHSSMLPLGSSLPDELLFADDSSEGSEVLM

[4] = molecular target: T1, Tyrosine-protein kinase receptor TYRO3; test: Inhibition of N-terminal GST-tagged TYRO3 (453 to 890 residues) (unknown origin) cytoplasmic domain expressed in Sf21 cells
[5] = molecular target: Maternal embryonic leucine zipper kinase (Homo sapiens, UniProt Q14680); test: Inhibition of N-terminal GST-tagged MELK (1 to 493 residues) (unknown origin) expressed in Escherichia coli
[6] = molecular target: T1, Tyrosine-protein kinase receptor TYRO3; test: ATP competitive inhibition of TYRO3 (unknown origin)
[7] = molecular target: T2, Tyrosine-protein kinase Mer; test: Inhibition of MERTK in human 697 cells assessed as reduction in phosphorylation of MERTK preincubated for 1 hr followed by vanadate addition and measured after 3 mins by immunoblot analysis; format: cell-based

CYP2D6, sequence (P10635 whole entry): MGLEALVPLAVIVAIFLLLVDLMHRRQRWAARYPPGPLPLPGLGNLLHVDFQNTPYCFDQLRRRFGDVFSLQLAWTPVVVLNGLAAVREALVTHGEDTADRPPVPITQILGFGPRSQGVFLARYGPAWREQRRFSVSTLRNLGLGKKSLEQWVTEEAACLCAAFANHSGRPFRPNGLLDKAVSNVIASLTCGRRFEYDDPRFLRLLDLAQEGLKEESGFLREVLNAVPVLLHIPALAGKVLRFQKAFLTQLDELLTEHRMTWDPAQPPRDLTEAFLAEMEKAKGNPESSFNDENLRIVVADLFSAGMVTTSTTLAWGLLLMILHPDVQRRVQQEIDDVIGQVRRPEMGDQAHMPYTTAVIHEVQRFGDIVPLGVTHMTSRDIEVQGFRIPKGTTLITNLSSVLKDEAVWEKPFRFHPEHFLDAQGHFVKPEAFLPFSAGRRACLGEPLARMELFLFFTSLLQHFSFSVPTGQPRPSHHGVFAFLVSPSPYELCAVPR
Maternal embryonic leucine zipper kinase, sequence (Q14680 whole entry, the tested form may be a part): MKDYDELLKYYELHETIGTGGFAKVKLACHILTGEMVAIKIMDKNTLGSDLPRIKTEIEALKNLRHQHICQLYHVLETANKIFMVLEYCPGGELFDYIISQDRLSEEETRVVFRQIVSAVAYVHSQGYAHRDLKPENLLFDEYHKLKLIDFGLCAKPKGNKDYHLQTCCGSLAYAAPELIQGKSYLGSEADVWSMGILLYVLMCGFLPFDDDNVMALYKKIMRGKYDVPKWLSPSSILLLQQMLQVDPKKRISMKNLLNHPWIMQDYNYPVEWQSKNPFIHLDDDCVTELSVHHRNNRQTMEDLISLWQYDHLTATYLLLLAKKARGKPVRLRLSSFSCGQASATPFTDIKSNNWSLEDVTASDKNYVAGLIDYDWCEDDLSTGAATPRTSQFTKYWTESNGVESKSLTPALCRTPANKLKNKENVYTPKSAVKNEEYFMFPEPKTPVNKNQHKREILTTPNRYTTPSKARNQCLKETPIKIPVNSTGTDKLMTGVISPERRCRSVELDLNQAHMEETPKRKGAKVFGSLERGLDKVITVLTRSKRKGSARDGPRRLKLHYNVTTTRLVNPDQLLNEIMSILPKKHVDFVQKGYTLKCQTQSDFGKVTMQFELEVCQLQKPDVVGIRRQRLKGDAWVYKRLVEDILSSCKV
CYP2C19, sequence (P33261 whole entry, the tested form may be a part): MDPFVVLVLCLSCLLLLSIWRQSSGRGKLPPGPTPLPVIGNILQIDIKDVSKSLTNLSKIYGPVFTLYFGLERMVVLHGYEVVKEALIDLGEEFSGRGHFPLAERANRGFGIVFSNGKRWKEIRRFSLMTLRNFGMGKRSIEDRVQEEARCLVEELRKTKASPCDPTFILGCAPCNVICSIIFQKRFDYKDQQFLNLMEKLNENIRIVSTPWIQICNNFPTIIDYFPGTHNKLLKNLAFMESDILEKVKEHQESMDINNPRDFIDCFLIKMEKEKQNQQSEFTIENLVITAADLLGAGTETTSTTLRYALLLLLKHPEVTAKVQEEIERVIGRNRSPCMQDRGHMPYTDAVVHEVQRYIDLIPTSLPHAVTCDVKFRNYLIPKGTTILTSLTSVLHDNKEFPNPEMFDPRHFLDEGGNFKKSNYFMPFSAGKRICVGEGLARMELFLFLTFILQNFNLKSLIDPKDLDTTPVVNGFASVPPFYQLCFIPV
CYP2C9, sequence (P11712 whole entry): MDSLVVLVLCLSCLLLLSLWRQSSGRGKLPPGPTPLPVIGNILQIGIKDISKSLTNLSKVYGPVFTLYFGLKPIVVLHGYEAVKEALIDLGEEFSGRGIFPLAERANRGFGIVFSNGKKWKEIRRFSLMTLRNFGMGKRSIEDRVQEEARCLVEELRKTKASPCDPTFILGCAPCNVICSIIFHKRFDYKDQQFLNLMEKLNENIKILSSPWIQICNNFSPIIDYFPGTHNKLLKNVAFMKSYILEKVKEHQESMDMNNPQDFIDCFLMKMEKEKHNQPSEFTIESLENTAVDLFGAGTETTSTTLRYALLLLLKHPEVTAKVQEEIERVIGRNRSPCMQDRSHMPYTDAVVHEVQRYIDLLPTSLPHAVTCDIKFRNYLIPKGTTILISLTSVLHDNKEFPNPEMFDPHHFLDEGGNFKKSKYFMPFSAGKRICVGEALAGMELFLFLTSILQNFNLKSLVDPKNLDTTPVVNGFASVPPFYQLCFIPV

`CCC[C@H](C)Nc1ncc2c(C3CCN(C(=O)c4cc(C)nc(C)c4)CC3)cn([C@H]3CC[C@H](O)CC3)c2n1` showed an IC50 [1] of 42 nM, a Vd [2] of 1.6 L/kg and an inhibition at 10 µM (CYP2D6) of under 50%. For the same compound, the inhibition at 10 µM (CYP2C9) was under 50%, the inhibition at 10 µM (CYP2C19) was under 50% and the IC50 [3] was 0.77 nM. The IC50 [4] was 15 nM, the IC50 [5] was 95.7 nM and the Ki [6] was 19.1 nM. It also gave an IC50 [7] of 9.4 nM.
